Test results published in US20230137667A1, “METHODS AND COMPOSITIONS FOR TREATMENT OF CORONAVIRUS INFECTION” (priority 2020, published 2023).
Read-outs that look alike come from different tables or passages of the source.

Assays:
caspases 3/7 [1] = format: cell-based, human
[2] = system: primary human lung microvascular endothelial cells (MVE)
caspases 3/7 [3] = format: cell-based, human; remark: listed apart in the source
[4] = system: primary human lung fibroblasts (FB)
[5] = system: primary human lung microvascular endothelial cells (MVE); remark: listed apart in the source
MERS-CoV [6] = format: cell-based
[7] = system: primary human lung fibroblasts (FB); remark: listed apart in the source
MERS-CoV [8] = format: cell-based; remark: listed apart in the source

C[C@H](CCC(=O)O)C[C@H](C)C[C@H](C)C(=O)/C=C(\O)[C@H](C)C[C@H](C)C/C=C/[C@@H](C)[C@@H](O)[C@@H](C)[C@@H](O)C[C@@H]1CC[C@@](C)([C@H]2CC[C@@](C)([C@@H](C)O)O2)O1 [ionomycin]
caspase 3/7 activation (caspases 3/7 [1]): did not induce caspase 3/7 activation
cell viability [2]: diminished cell viability
caspase 3/7 activation (caspases 3/7 [3]): did not induce caspase 3/7 activation
cell viability [4]: diminished cell viability

Cc1ccc2cc(-c3c(C)ccc(C(=O)c4c(-c5ccccc5)n(C)n(-c5ccccc5)c4=O)c3N)ccc2n1 [AMG PERK 44]
caspase 3/7 activation above untreated infected cells (caspases 3/7 [1]): No significant dose responsive change in caspase 3/7 activation above untreated infected cells
caspase 3/7 activation above untreated infected cells (caspases 3/7 [3]): No significant dose responsive change in caspase 3/7 activation above untreated infected cells
cytotoxicity (CellTiter-Glo cell viability) [5]: dose dependent increase in cytotoxicity

O=C(COc1ccc(Cl)cc1)NC1CCC(NC(=O)COc2ccc(Cl)cc2)CC1 (stereo not drawn) [trans-ISRIB]
MERS-CoV replication (nanoluciferase expression) (MERS-CoV [6]): did not alter MERS-CoV replication in either infected MVE or FB
cytotoxicity (CellTiter-Glo cell viability) [7]: not cytotoxic at any dose tested
cytotoxicity (CellTiter-Glo cell viability) [5]: not cytotoxic at any dose tested
MERS-CoV replication (nanoluciferase expression) (MERS-CoV [8]): did not alter MERS-CoV replication in either infected MVE or FB

CN[C@@H]1C[C@H]2O[C@@](C)([C@@H]1OC)n1c3ccccc3c3c4c(c5c6ccccc6n2c5c31)C(=O)NC4 [staurosporine]
caspase 3/7 activation (caspases 3/7 [1]): significantly induced caspase 3/7 activation
cell viability [2]: diminished cell viability
caspase 3/7 activation (caspases 3/7 [3]): significantly induced caspase 3/7 activation
cell viability [4]: diminished cell viability
